For the assay, the target named is T1, human leukocyte elastase (Homo sapiens, UniProt P08246).
T1 sequence (P08246 30-247 limits assumed): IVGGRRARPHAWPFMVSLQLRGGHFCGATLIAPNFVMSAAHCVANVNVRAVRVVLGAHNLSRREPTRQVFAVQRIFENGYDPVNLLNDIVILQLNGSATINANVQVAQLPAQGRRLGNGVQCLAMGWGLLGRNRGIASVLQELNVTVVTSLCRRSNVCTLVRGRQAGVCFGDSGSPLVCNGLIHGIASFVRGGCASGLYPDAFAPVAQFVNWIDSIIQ
Briefly: human leukocyte elastase inhibitory activity (MeOSuc-Ala-Ala-Pro-Val-pNA substrate, absorbance progress curves). It is filed as biochemical. The method, then: The test compound (inhibitor) is dissolved in DMSO in a vial to produce an inhibitor stock solution which has a concentration in the range of 200-1000 μM. The inhibitor stock solution is diluted (1:4, 1:16 and 1:64) into assay vials (vials 1, 2 and 3 respectively) containing 2.4 mL of buffer solution (50 mM N-[2-hydroxyethyl]piperazine-N'-[2-ethanesulfonic acid]/NaOH, 500 mM NaCl, pH 7.8 at 25° C.) and DMSO is added so that the total volume in each vial is 3.2 mL. 70 μL, 50 μL, 35 μL and 25 μL of inhibitor from assay vial 1 is placed into the first four wells of a 96-well microtiter plate and each well is made up to 90 μL total volume with the addition of a 25% DMSO/buffer solution. The inhibitor from assay vials 2 and 3 is processed in a similar manner and placed in wells 5-12 respectively to afford a total of 12 different inhibitor concentrations. Four wells (wells 13-16) containing 90 μL of the 25% DMSO/buffer solution but no inhibitor are also run simultaneously with the inhibited wells as a control. 150 μL of substrate solution (prepared by the addition of 500 μL of the human leukocyte elastase (HLE) substrate MeOSuc-Ala-Ala-Pro-Val-pNA (18.7 mM in DMSO) to 19.5 mL of buffer solution) is then added simultaneously into each of the 16 wells and the solution in each well was thoroughly mixed.
The 96-well microtiter plate is placed into a Microplate Reader #89815A spectrophotometer and 110 μL of the enzyme solution (prepared as follows: a mixture of 20 mL of buffer solution and 20 mg of bovine serum albumen is gently vortexed in a scintillation vial and 5 μL HLE stock solution (1 mg/mL dissolved in deionized water) is added) is added simultaneously to each of the 16 wells. Each of the solutions in the wells is throughly mixed and then the time-dependent absorbance data is collected at an absorbance of 410 nm until the assay is complete. It should be noted that although this assay method can be done manually, it is preferred to perform the assay robotically using a Hewlett Packard MicroAssay System Robot.
A plot of the absorbance versus time data thus obtained affords progress curves the final slope of which is equal to the final steady-state velocities (VF). Using the program ENZFITTER (Elsevier software), the progress curves for the four control assays ([I]=0) are fit by linear regression to yield the enzyme reaction velocity values in the absences of inhibitor (Vo) which are averaged to produce a single fixed value. The inhibition constant Ki (nM) is then obtained from a plot of [formula] which affords a linear plot wherein: [formula] and [S] is the concentration of the substrate and Km is the Michaelis constant.
Table V summarizes the results obtained from the testing of representative compounds of the invention for human leukocyte elastase inhibitory activity.

Our source for the Ki values is US5541168A, “Substituted 2-(phosphinyloxymethyl)-1,2,5-thiadiazolidin-3-one 1,1-dioxides and compositions and method of use thereof” (Sterling Winthrop Inc., priority 1994, dated 1996).

Read-outs that look alike come from different tables or passages of the source.

Usually Ki stands for the equilibrium dissociation constant of an inhibitor or competing ligand from its target. In the case of `CCOP(=O)(OCC)OCN1C(=O)C(C(C)C)N(C)S1(=O)=O` (centres unmarked) [2(i), 2-(diethoxyphosphinyloxymethyl)-4-isopropyl-5-methyl-1,2,5-thiadiazolidin-3-one 1,1-dioxide], the Ki came to 680 nM.

Regarding `CC(C)CCC1C(=O)N(COP(=O)(OCc2ccccc2)OCc2ccccc2)S(=O)(=O)N1C` (centres unmarked) [4(j), 2-(dibenzyloxyphosphinyloxymethyl)-4-(3-methylbutyl)-5-methyl-1,2,5-thiadiazolidin-3-one 1,1-dioxide], the inhibitory constant (Ki) (human leukocyte elastase, substrate MeOSuc-Ala-Ala-Pro-Val-pNA, pH 7.8, 25° C. buffer, read-out: Ki) was found to be 1.5 nM.

The compound `CCCC1C(=O)N(COP(=O)(OCC)OCC)S(=O)(=O)N1C` (centres unmarked) [1(i), 2-(diethoxyphosphinyloxymethyl)-4-propyl-5-methyl-1,2,5-thiadiazolidin-3-one 1,1-dioxide] showed a Ki of 2 nM.

In turn, `CCOP(=O)(OCC)OCN1C(=O)C2CCCCN2S1(=O)=O` (centres unmarked) [17(f), 2-(diethoxyphosphinyloxymethyl)-1,2,5-thiadiazolo[2,3-a]3,3a,4,5,6,7-hexahydropyridine-3-one 1,1-dioxide] returned a Ki of 500 nM.

In the case of `CCCC1NS(=O)(=O)N(COP(=O)(OCC)OCC)C1=O` (centres unmarked) [3(f), 2-(diethoxyphosphinyloxymethyl)-4-propyl-1,2,5-thiadiazolidin-3-one 1,1-dioxide], the inhibition constant (Ki) was 25 nM.
